Results as given in patent US10894807B2 (Siemens Medical Solutions USA, Inc., priority 2011, dated 2021).
Where a SMILES comes first, the peptide text is derived from it. [ ]: non-standard residue; d: D form. The star is where a group is joined. Boc = CC(C)(C)OC(=O)*; Nlys = NCCCCNCC(=O)O

These compounds were tested against human PSMA (Homo sapiens (Human), UniProt Q04609) (assay: Enzymatic assay for in vitro evaluation of PSMA inhibitors (fluorescent assay of PSMA activity, NAAG substrate, OPA detection of glutamate)). Details: not given.
Sequence of human PSMA (Q04609 whole entry): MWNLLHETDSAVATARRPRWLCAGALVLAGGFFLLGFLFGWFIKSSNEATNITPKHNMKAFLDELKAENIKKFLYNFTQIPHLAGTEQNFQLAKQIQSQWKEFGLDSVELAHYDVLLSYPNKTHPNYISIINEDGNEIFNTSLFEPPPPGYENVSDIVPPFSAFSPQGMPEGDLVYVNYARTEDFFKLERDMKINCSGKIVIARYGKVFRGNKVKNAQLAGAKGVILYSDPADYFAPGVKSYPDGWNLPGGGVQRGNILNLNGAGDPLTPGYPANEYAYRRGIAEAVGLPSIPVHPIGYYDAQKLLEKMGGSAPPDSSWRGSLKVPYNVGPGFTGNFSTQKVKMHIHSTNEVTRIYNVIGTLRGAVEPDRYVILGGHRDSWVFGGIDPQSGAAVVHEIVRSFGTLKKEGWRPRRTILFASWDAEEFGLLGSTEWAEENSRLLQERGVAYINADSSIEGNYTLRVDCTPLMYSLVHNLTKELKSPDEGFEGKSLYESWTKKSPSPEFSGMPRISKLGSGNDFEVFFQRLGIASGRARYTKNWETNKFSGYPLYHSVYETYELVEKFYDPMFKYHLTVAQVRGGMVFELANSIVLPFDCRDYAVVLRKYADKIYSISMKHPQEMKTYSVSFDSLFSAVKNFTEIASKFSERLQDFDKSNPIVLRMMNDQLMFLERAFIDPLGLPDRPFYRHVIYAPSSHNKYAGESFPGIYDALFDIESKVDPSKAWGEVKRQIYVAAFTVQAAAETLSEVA
Assay type: biochemical
Method: Enzymatic Assay for In Vitro Evaluation of PSMA Inhibitors
The inhibitory activity of all compounds was determined using a fluorescent assay of human PSMA activity. The enzyme used in the assay was purchased from R&D Systems and stored at −80° C. The PSMA activity was assayed in a two-step process. In the first step, aliquots of enzyme (0.2 μg/mL) were incubated for 1 h at 37° C. in 50 mM HEPES, 0.1 M NaCl, pH 7.5, in the presence of 20 μM NAAG and the given inhibitor, in a volume of 250 μL, to allow for the accumulation of glutamate produced in the PSMA reaction. In the second step, the amount of accumulated glutamate was measured using the OPA reaction, and the fluorescence was read with a SpectraMax fluorescent plate reader using excitation at 330 nm and emission at 450 nm. The final Ki values for each inhibitor were calculated from the respective IC50 values using the Cheng and Prusoff equation.

Ki	SMILES
0.0156 µM	CN(C(=O)N[C@@H](CCC(=O)O)C(=O)O)[C@@H](CCCCNC(=O)OCc1ccccc1)C(=O)O [P018, (9S,13S)-10-Methyl-3,11-dioxo-1-phenyl-2-oxa-4,10,12-triazapentadecane-9,13,15-tricarboxylic Acid]
0.0375 µM	CN(C(=O)N[C@@H](CCCCNC(=O)OCc1ccccc1)C(=O)O)[C@@H](CCC(=O)O)C(=O)O [P019, (9S,13S)-12-Methyl-3,11-dioxo-1-phenyl-2-oxa-4,10,12-triazapentadecane-9,13,15-tricarboxylic Acid]
0.00078 µM	O=C(O)CC[C@H](NC(=O)N[C@@H](CCCCNC(=O)OCc1ccccc1)C(=O)O)C(=O)O [P033, (9S,13S)-3,11-Dioxo-1-phenyl-2-oxa-4,10,12-triazapentadecane-9,13,15-tricarboxylic Acid]

Same assay, conditions: compound at 10 μM

SMILES	PSMA Blkg % (10 μM)
Cc1ccc(-c2cn(CC(=O)N[C@@H](CC(=O)N[C@@H](CCC(=O)O)C(=O)O)C(=O)O)nn2)cc1 [P016, (S)-2-((S)-3-Carboxy-3-(2-(4-(p-tolyl)-1H-1,2,3-triazol-1-yl)acetamido)-propanamido)pentanedioic Acid]	12%
O=C(O)CCN(CC(=O)O)NC(=O)NC(CSCc1ccccc1)C(=O)O (stereo not shown) [P017, 3-(Benzylthio)-2-(2-(2-carboxyethyl)-2-(carboxymethyl)-hydrazinecarboxamido)propanoic Acid]	0%
CN(C(=O)N[C@@H](CCC(=O)O)C(=O)O)[C@@H](CCCCNC(=O)OCc1ccccc1)C(=O)O [P018, (9S,13S)-10-Methyl-3,11-dioxo-1-phenyl-2-oxa-4,10,12-triazapentadecane-9,13,15-tricarboxylic Acid]	99%
CN(C(=O)N[C@@H](CCCCNC(=O)OCc1ccccc1)C(=O)O)[C@@H](CCC(=O)O)C(=O)O [P019, (9S,13S)-12-Methyl-3,11-dioxo-1-phenyl-2-oxa-4,10,12-triazapentadecane-9,13,15-tricarboxylic Acid]	97%
O=C(O)CC[C@H](NC(=O)C[C@H](NC(=O)Cn1cc(CCCF)nn1)C(=O)O)C(=O)O [P020, (S)-2-((S)-3-Carboxy-3-(2-(4-(3-fluoropropyl)-1H-1,2,3-triazol-1-yl)acetamido)-propanamido)pentanedioic Acid]	0%
O=C(O)CC[C@H](NC(=O)N(CC(=O)O)NC(=O)OCc1ccccc1)C(=O)O [P021, (S)-2-(2-(Benzyloxycarbonyl)-1-(carboxymethyl)hydrazinecarboxamido) pentanedioic Acid]	0%
O=C(O)CC[C@H](NC(=O)NCC(=O)O)C(=O)O [P022, (S)-2-(3-(Carboxymethyl)ureido)pentanedioic Acid]	77%
[N-]=[N+]=NCCCC(=O)N[C@@H](CC(=O)N[C@@H](CCC(=O)O)C(=O)O)C(=O)O [P023, (S)-2-((S)-3-(4-Azidobutanamido)-3-carboxypropanamido)pentanedioic Acid]	24%
C[C@@H](C(=O)O)N(C)C(=O)N[C@@H](CCC(=O)O)C(=O)O [P024, (S)-2-(3-((S)-1-carboxyethyl)-3-methylureido)pentanedioic Acid]	6%
C[C@H](NC(=O)N[C@@H](CCC(=O)O)C(=O)O)C(=O)O [P025, (S)-2-(3-((S)-1-Carboxyethyl)ureido)pentanedioic Acid]	92%
CC(=O)N(CCCCNC(=O)OC(C)(C)C)CC(=O)N[C@@H](CCC(=O)O)C(=O)O [P040, (S)-2-(2-(N-(4-(tert-Butoxycarbonylamino)butyl)acetamido)acetamido)pentanedioic Acid] (Ac-[Nlys](Boc)-Glu-OH)	42%
CC(C)(C)OC(=O)NCCCCN(CC(=O)N[C@@H](CCC(=O)O)C(=O)O)C(=O)NO [P042, (S)-2-(2-(1-(4-(tert-Butoxycarbonylamino)butyl)-3-hydroxyureido)acetamido) pentanedioic Acid]	0%

Next, values leading:

PSMA Blkg % (10 μM)	SMILES
2%	O=C(O)CCNC(=O)N[C@@H](CCC(=O)O)C(=O)O [P026, (S)-2-(3-(2-Carboxyethyl)ureido)pentanedioic Acid]
31%	O=C(O)CC[C@H](NC(=O)OCC(=O)O)C(=O)O [P027, (S)-2-(((Carboxymethoxy)carbonyl)amino)pentanedioic Acid]
24%	O=C(O)CN(CC(=O)O)CC(=O)N[C@H](CSCc1ccccc1)C(=O)O [P028, (S)-2,2′-((2-((2-(Benzylthio)-1-carboxyethyl)amino)-2-oxoethyl)azanediyl)diacetic Acid]
12%	CN(C(=O)CCCC(=O)O)[C@@H](CCC(=O)O)C(=O)O [P029, (S)-2-(4-Carboxy-N-methylbutanamido)pentanedioic Acid]
2%	O=C(O)CCCC(=O)NC(CCC(=O)O)C(=O)O (stereo not shown) [P030, S)-2-(4-Carboxybutanamido)pentanedioic Acid]
19%	C[C@H](NC(=O)CCCN=[N+]=[N-])C(=O)N[C@@H](CCC(=O)O)C(=O)O [P031, (S)-2-((S)-2-(4-Azidobutanamido)propanamido)pentanedioic Acid]
50%	CN(C(=O)N[C@@H](CCC(=O)O)C(=O)O)[C@@H](CCCCNC(=O)Cn1cc(CCCF)nn1)C(=O)O [P032, (S)-2-(3-((S)-1-Carboxy-5-(2-(4-(3-fluoropropyl)-1H-1,2,3-triazol-1-yl)acetamido)pentyl)-3-methylureido)pentanedioic Acid]
89%	O=C(O)CC[C@H](NC(=O)N[C@@H](CCCCNC(=O)OCc1ccccc1)C(=O)O)C(=O)O [P033, (9S,13S)-3,11-Dioxo-1-phenyl-2-oxa-4,10,12-triazapentadecane-9,13,15-tricarboxylic Acid]
70%	CN(C(=O)N[C@@H](CCC(=O)O)C(=O)O)[C@@H](CCCCNC(=O)CN=[N+]=[N-])C(=O)O [P034, (S)-2-(3-((S)-5-(2-Azidoacetamido)-1-carboxypentyl)-3-methylureido)pentanedioic Acid]
0%	CCN(C(=O)N[C@@H](CCC(=O)O)C(=O)O)[C@@H](CCCCNC(=O)OCc1ccccc1)C(=O)O [P035, (9S, 13S)-10-Ethyl-3,11-dioxo-1-phenyl-2-oxa-4,10,12-triazapentadecane-9,13,15-tricarboxylic Acid]
68%	COc1ccc(-c2cn(CC(=O)NCCCC[C@@H](C(=O)O)N(C)C(=O)N[C@@H](CCC(=O)O)C(=O)O)nn2)cc1 [P036, (S)-2-(3-((S)-1-Carboxy-5-(2-(4-(4-methoxyphenyl)-1H-1,2,3-triazol-1-yl)acetamido)-pentyl)3-methylureido)pentanedioic Acid]
12%	O=C(O)CC[C@H](Nc1nc(C(=O)O)co1)C(=O)O [P037, (S)-2-((4-Carboxyoxazol-2-yl)amino)pentanedioic Acid]
2%	O=C(O)CC[C@H](NC(=O)N(O)CCCc1ccccc1)C(=O)O [P038, (S)-2-(3-Hydroxy-3-(3-phenylpropyl)ureido)pentanedioic Acid]
77%	CC(C)(C)OC(=O)NCCCC[C@H](NC(=O)N[C@@H](CCC(=O)O)C(=O)O)C(=O)O [P039, (10S,14S)-2,2-Dimethyl-4,12-dioxo-3-oxa-5,11,13-triazahexadecane-10,14,16-tricarboxylic Acid]
77%	O=C(O)CC[C@H](NC(=O)N[C@@H](CCCCNC(=O)Cn1cc(Cn2ccnc2[N+](=O)[O-])nn1)C(=O)O)C(=O)O [P043, (S)-2-(3-((S)-1-Carboxy-5-(2-(4-2((2-nitro-1H-imidazo-1-yl)-methyl)-1H-1,2,3-triazol-1-yl)acetamido)pentyl)ureido)pentanedioic Acid]
62%	CN(C(=O)N[C@@H](CCC(=O)O)C(=O)O)[C@@H](CCCCNC(=O)Cn1cc(Cn2ccnc2[N+](=O)[O-])nn1)C(=O)O [P044, (S)-2-(3-((S)-1-Carboxy-5-(2-(4-2((2-nitro-1H-imidazo-1-yl)methyl)-1H-1,2,3-triazol-1-yl)acetamido)pentyl)-3-methylureido)pentanedioic Acid]
